Publication PMC11845477, “Exploring the principles behind antibiotics with limited resistance” (Nature Communications, 2025)

Experiments:
Assay in all cases: microbe, parasite or virus in culture
[1] = tested on: T1, Acinetobacter baumannii ATCC 17978; set-up: CLSI broth microdilution MIC; OD600 < 0.05 counted as complete growth inhibition; details: Acinetobacter baumannii, ATCC17978, 18 h; read-out: MIC of ancestor
T1 construct: ATCC 17978
Experimental: (§1) A final concentration of 5 × 10^5 bacterial cells per mL were inoculated into each well containing 60 µL MHB medium. Bacterial cultures were incubated at 37 °C with continuous shaking (Infors shaker, 900 rpm with 3 mm throw) for 18 hours (2 replicates from each). Cell growth was monitored by measuring the optical density (OD600 values, using Biotek Synergy microplate reader). MIC was defined as the antibiotic concentration of complete growth inhibition (i.e., OD600 < 0.05). Relative MIC was calculated as follows:1 relativeMIC=MICevolved/MICancestor This study focused on multiple bacterial strains, as follows. For the FoR and ALE experiments, 2 strains per species were chosen: E. coli ATCC 25922, K. pneumoniae ATCC 10031, A. baumannii ATCC 17978, and P. aeruginosa ATCC BAA-3107 as sensitive (SEN) strains, and E. coli NCTC13846, K. pneumoniae ATCC 700603, A. baumannii ATCC BAA-1605 and P. aeruginosa LESB58 as multi-drug resistant (MDR) strains. Functional metagenomic screens were performed with E. coli ATCC 25922 and K. pneumoniae ATCC 10031 strains. To determine the dose-kill properties of the different antibiotics, an E. coli strain (ATCC 25922) expressing a yellow fluorescent protein (pZS2R, YFP, CHL^R) and a red fluorescent protein (pZS2R, mCherry, CHL^R) was used.

[2] = tested on: T2, Escherichia coli ATCC 25922; set-up: CLSI broth microdilution MIC; OD600 < 0.05 counted as complete growth inhibition; details: Escherichia coli, ATCC25922, 18 h; read-out: MIC of ancestor
T2 construct: ATCC 25922
Experimental: as §1

[3] = tested on: T3, Escherichia coli NCTC 13846; set-up: CLSI broth microdilution MIC; OD600 < 0.05 counted as complete growth inhibition; details: Escherichia coli, NCTC13846, 18 h; read-out: MIC of ancestor
T3 construct: NCTC 13846
Experimental: as §1

[4] = tested on: T4, Klebsiella pneumoniae ATCC 10031; set-up: CLSI broth microdilution MIC; OD600 < 0.05 counted as complete growth inhibition; details: Klebsiella pneumoniae, ATCC10031, 18 h; read-out: MIC of ancestor
T4 construct: ATCC 10031
Experimental: as §1

[5] = tested on: T5, Klebsiella pneumoniae ATCC 700603; set-up: CLSI broth microdilution MIC; OD600 < 0.05 counted as complete growth inhibition; details: Klebsiella pneumoniae, ATCC700603, 18 h; read-out: MIC of ancestor
T5 construct: ATCC 700603
Experimental: as §1

A. baumannii ATCC 17978 = tested on: T6, A. baumannii ATCC 17978; set-up: Serial broth microdilution MIC (CLSI), OD600 below 0.05, 384-well plates, MHB medium; details: Acinetobacter baumannii, ATCC17978, 18 h; ancestor strain before evolution
T6 construct: ATCC 17978
Experimental: as §1

E. coli ATCC 25922 = tested on: E. coli ATCC 25922; set-up: Serial broth microdilution MIC (CLSI), OD600 below 0.05, 384-well plates, MHB medium; details: Escherichia coli, ATCC25922, 18 h; ancestor strain before evolution
Experimental: as §1

E. coli NCTC13846 (MDR) = tested on: T7, E. coli NCTC13846 (MDR); set-up: Serial broth microdilution MIC (CLSI), OD600 below 0.05, 384-well plates, MHB medium; details: Escherichia coli, NCTC13846, 18 h; ancestor strain before evolution
T7 construct: NCTC 13846
Experimental: as §1

K. pneumoniae ATCC 10031 = tested on: T8, K. pneumoniae ATCC 10031; set-up: Serial broth microdilution MIC (CLSI), OD600 below 0.05, 384-well plates, MHB medium; details: Klebsiella pneumoniae, ATCC10031, 18 h; ancestor strain before evolution
T8 construct: ATCC 10031
Experimental: as §1

[6] = tested on: T9, K. pneumoniae ATCC 700603 (MDR); set-up: Serial broth microdilution MIC (CLSI), OD600 below 0.05, 384-well plates, MHB medium; details: Klebsiella pneumoniae, ATCC700603, 18 h; ancestor strain before evolution
T9 construct: ATCC 700603
Experimental: as §1

[7] = tested on: T10, Acinetobacter baumannii ATCC BAA 1605; set-up: CLSI broth microdilution MIC; OD600 < 0.05 counted as complete growth inhibition; details: Acinetobacter baumannii, BAA1605, 18 h; read-out: MIC of ancestor
T10 construct: ATCC BAA-1605
Experimental: as §1

Compound: C[C@@H](O)[C@H]1C(=O)N2C(C(=O)O)=C(S[C@H]3CC[S@@+]([O-])C3)S[C@H]12 [SUO, sulopenem]
- MIC [1]: 1 µg/mL
- MIC [2]: 0.0312 µg/mL
- MIC [3]: 0.0312 µg/mL
- MIC [4]: 0.0312 µg/mL
- MIC [5]: 0.5 µg/mL

Compound: C[C@@H](O)[C@H]1C(=O)N2C(C(=O)O)=C(S[C@H]3CC[S@@+]([O-])C3)S[C@H]12 [sulopenem]
- MIC (A. baumannii ATCC 17978): 1 µg/mL
- MIC (E. coli ATCC 25922): 0.0312 µg/mL
- MIC (E. coli NCTC13846 (MDR)): 0.0312 µg/mL
- MIC (K. pneumoniae ATCC 10031): 0.0312 µg/mL
- MIC [6]: 0.5 µg/mL

Compound: CC(C)c1ccc(Cn2ccc3c4c(N)nc(NC5CC5)nc4ccc32)cc1 [SCH, SCH79797]
- MIC [1]: 4 µg/mL
- MIC [7]: 4 µg/mL
- MIC [2]: 4 µg/mL
- MIC [4]: 4 µg/mL
